Test results from patent publication US20220079889A1, “USE OF CANNABANOIDS IN THE TREATMENT OF PROLIFERATIVE DIABETIC RETINOPATHY” (VERDANT PHARMACEUTICALS, LLC, priority 2020, published 2022).

How the values were obtained:
[1] = system: ED-1-positive cells in the CNV lesions; assay: Quantification of macrophage infiltration into CNV lesions; assay type: in vivo, Brown-Norway rats
Procedure: (§1) To block CB, a specific CBD, Compound 11 described above, was used (R-tech Ueno, Ltd., Tokyo, Japan). After laser injury, the inhibitor (0.3 mg/kg BW) was administered to the animals by daily i.p. injections. As a control, some animals received the same regimen for the vehicle solution alone.
At 1, 3, and 7 days after laser injury and treatment with either CBD or vehicle solution, animals were perfused with 200 ml of PBS/kg BW under deep anesthesia. Subsequently, eyes were enucleated and fixed overnight with 4% PFA, and 10 μm frozen sections of the posterior segment, including the center portion of CNV lesions (6 lesions per eye), were prepared and pre-blocked (PBS containing 10% goat serum, 0.5% gelatin, 3% BSA, and 0.2% Tween 20). […] The photographs of CNV lesions were taken, and the numbers of ED-1-positive cells were counted. To obtain a quantitative index of macrophage numbers in CNV lesions, an optical density plot of the selected area was generated by a histogram graphing tool in the Photoshop imageanalysis software (version 6.0: Adobe Systems, Mountain View, Calif.), as described in the literature (for example, Sakurai et al. (2003) IOVS 44: 3578-85). […]

[2] = system: MCP-1; assay: ELISA of RPE-choroid complex after laser injury: MCP-1; assay type: in vivo, rat; conditions: laser-treated animals, 3 days after laser injury; 0.3 mg/kg BW daily i.p.
Procedure: as §1
(§2) The RPE-choroid complex was carefully isolated from eyes 3 days after photocoagulation and placed in 300 μl of lysis buffer supplemented with protease inhibitors and sonicated. The lysate was centrifuged at 15,000 rpm for 15 minutes at 4° C. and the levels of TNF-α, monocyte chemotactic protein (MCP)-1, and intercellular adhesion molecule (ICAM)-1 were determined with rat TNF-α (BI) bioscience), MCP-1 (BD bioscience) and ICAM-1 (R&D Systems, Minneapolis, Minn.) enzyme-linked immunosorbent assay (ELISA) kits according to the manufacturers' protocols. Total protein concentration was determined using a Bio-Rad Protein Assay Kit (Bio-Rad Laboratories Hercules, Calif.) and dilutions of bovine serum albumin (Bio-Rad Laboratories) as standards.

[3] = system: IL-1β-induced corneal angiogenesis; assay: IL-1β-induced corneal angiogenesis; assay type: in vivo, BALB/c mice; conditions: 0.3 mg/kg daily i.p.; compared with untreated controls
Procedure: BALB/c mice were anesthetized by intraperitoneal (i.p.) injection of pentobarbital sodium (60 mg/kg). Hydron pellets (0.3 μl) containing 30 ng mouse IL-1β (401-ML, R&D Systems) were prepared and implanted into the corneas. Pellets were positioned 1 mm from the corneal limbus. Implanted eyes were treated with Bacitracin ophthalmic ointment (E. Fougera & Co.) to prevent infection. To block CB, mice received daily i.p. injections of a specific CBD. Compound II (R-tech Ueno Ltd., Tokyo, Japan) as described above. A daily dose of 0.3 mg/kg was administered at day 0 and continued until the sixth day after implantation. Two, four and six days after implantation, digital images of the corneal vessels were obtained and recorded using OpenLab software version 2.2.5 (Improvision Inc.) with standardized illumination and contrast and were saved onto disks. The quantitative analysis of new vessel growth in the mouse corneas was performed using Scion Image software (version 4.0.2, Scion Corp.).

[4] = system: ICAM-1; assay: ELISA of RPE-choroid complex after laser injury: ICAM-1; assay type: in vivo, rat; conditions: laser-treated animals, 3 days after laser injury; 0.3 mg/kg BW daily i.p.
Procedure: as §1, §2

CC(=O)Nc1nc(CCc2ccc(NC(=N)NN)cc2)c(Cc2ccc(S(C)(=O)=O)cc2)s1 [Compound II]
reduction of number of accumulated macrophages ([1]; 3 days after laser injury, 0.3 mg/kg BW daily i.p., n=4, p<0.05): 41%
effect on accumulation of macrophages in the CNV lesions (in words) ([1]; laser injury model, rats): significantly decreased
protein level of MCP-1 in the RPE-choroid complex [2]: 662 ± 52 pg/mg
effect on corneal angiogenesis (in words) [3]: effectively suppresses corneal angiogenesis
protein level of ICAM-1 in the RPE-choroid complex [4]: 57 ± 2 ng/mg
